Reference: US20240131032A1, “AN ACTIVITY-GUIDED MAP OF ELECTROPHILE-CYSTEINE INTERACTIONS IN PRIMARY HUMAN IMMUNE CELLS” (The Scripps Research Institute, priority 2019, published 2024)

How the values were obtained:
ERCC3 = molecular target: T1, ERCC3 (Homo sapiens, UniProt P19447); assay: isoTOP-ABPP and TMT-ABPP cysteine engagement, ERCC3; format: binding
T1 construct: endogenous in cells; host or cells: primary human T cells
T1 sequence (P19447 1-782): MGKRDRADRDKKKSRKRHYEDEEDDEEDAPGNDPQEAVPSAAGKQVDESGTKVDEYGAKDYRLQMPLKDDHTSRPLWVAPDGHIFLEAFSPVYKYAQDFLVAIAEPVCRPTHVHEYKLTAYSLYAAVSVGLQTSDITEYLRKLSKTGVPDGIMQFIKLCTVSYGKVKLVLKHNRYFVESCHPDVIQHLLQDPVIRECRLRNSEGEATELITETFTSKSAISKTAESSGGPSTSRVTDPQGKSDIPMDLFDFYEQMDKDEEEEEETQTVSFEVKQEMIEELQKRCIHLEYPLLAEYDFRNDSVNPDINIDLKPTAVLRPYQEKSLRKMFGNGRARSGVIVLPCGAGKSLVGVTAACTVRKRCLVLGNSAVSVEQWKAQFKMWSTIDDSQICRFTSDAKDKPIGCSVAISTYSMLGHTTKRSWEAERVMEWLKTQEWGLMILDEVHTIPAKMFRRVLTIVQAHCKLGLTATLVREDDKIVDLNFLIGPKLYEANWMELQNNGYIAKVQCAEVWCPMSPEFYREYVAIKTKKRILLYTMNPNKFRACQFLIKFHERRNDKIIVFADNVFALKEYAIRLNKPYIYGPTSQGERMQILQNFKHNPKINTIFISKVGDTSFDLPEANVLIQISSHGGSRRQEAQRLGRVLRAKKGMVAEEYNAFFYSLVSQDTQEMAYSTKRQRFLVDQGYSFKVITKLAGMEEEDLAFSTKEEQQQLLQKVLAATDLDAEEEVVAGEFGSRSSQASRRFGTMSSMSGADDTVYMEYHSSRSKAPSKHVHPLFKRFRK
Procedure: (§1) Activated or expanded T cells were re-suspended in RPMI media supplemented with 10% FBS, L-glutamine (2 mM), penicillin (100 U/mL), and streptomycin (100 μg/mL) at 2×10^6 cells/mL. The compounds were added to cells as 1000×DMSO stocks and mixed well with the media by pipetting up and down after addition. The cells were kept at 37° C. in 5% CO2 containing incubators for 3 h (or otherwise specified times), then pelleted by centrifugation (524 g, 5 min, 4° C.), washed with cold PBS (10 mL) and transferred to Eppendorf tubes (1 mL PBS). The cells were pelleted again (524 g, 5 min, 4° C.), flash-frozen, and kept at −80° C. until further analysis.
Activated or expanded primary human T cells were re-suspended in RPMI (1×10^6 cells/mL) containing 10% fetal bovine serum (FBS), penicillin (100 U/mL), streptomycin ([…]), and L-glutamine (2 mM). The cells were treated with DMSO or compounds for 3 h, pelleted (524 g, 5 min), washed with PBS, and lysed by sonication (2×8 pulses). Soluble and particulate proteomic fractions were separated by ultracentrifugation (100,000 g, 45 min), and protein concentration was normalized to 1.7 mg/mL using a standard DC protein assay (Bio-Rad). The resulting proteomes were analyzed by competitive isotopic Tandem Orthogonal Proteolysis Activity-Based Protein Profiling (isoTOP-ABPP).
Samples (500 μL, 1.7 mg/mL) were treated with iodoacetamide alkyne (IA-alkyne, 5 μL of 10 mM stock in DMSO, final concentration: 100 μM) for 1 h at ambient temperature. Modified proteins were then conjugated to isotopically labeled, TEV-cleavable biotin tags (TEV-tags) using copper-catalyzed azide-alkyne cycloaddition reaction (CuAAC). Reagents for the CuAAC reaction were pre-mixed prior to their addition to the proteome samples. […]
The heavy/light isoTOP-ABPP ratios (R values) for each unique peptide (DMSO/compound treated) were quantified with in-house CIMAGE software (Weerapana et al., 2010) using default parameters (3 MS1 acquisitions per peak and signal to noise threshold set to 2.5). Site-specific engagement of cysteine residues was assessed by blockade of IA-alkyne probe labeling. […] Ratios for unique peptide sequences were calculated for each experiment; overlapping peptides with the same modified cysteine (e.g., different charge states, elution times or tryptic termini) were grouped together and the median ratio was reported as the final ratio (R). […]

BIRC2 = BIRC2 (Homo sapiens, UniProt Q13490); assay: isoTOP-ABPP and TMT-ABPP cysteine engagement, BIRC2; format: binding; set-up: endogenous in cells; host or cells: primary human T cells
BIRC2, sequence (Q13490 whole entry): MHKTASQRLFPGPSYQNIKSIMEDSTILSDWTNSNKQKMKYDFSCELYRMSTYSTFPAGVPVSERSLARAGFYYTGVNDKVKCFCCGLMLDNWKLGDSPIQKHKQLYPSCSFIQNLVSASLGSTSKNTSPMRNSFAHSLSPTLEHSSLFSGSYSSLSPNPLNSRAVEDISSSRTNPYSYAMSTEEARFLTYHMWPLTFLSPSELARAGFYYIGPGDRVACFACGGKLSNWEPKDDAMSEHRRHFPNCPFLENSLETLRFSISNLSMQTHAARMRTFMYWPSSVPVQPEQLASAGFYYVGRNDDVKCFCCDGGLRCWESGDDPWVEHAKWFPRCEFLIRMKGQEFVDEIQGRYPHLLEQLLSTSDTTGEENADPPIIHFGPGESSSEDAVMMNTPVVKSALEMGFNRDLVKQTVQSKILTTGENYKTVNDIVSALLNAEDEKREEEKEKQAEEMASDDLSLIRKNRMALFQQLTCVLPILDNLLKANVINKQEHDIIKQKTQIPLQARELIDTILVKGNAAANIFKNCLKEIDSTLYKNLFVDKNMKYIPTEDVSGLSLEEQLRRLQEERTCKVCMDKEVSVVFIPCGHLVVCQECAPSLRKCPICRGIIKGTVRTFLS
Procedure: as §1
Activated or expanded primary human T cells were re-suspended in RPMI (1×10^6 cells/mL) containing 10% fetal bovine serum (FBS), penicillin (100 U/mL), streptomycin ([…]), and L-glutamine (2 mM). […] The resulting proteomes were analyzed by competitive isotopic Tandem Orthogonal Proteolysis Activity-Based Protein Profiling (isoTOP-ABPP). […]
The heavy/light isoTOP-ABPP ratios (R values) for each unique peptide (DMSO/compound treated) were quantified with in-house CIMAGE software (Weerapana et al., 2010) using default parameters (3 MS1 acquisitions per peak and signal to noise threshold set to 2.5). Site-specific engagement of cysteine residues was assessed by blockade of IA-alkyne probe labeling. […]

Structure (SMILES)	efficacy at ERCC3 C342, BPK-21 with respect to BPK-25 (ERCC3)	engagement of C342 of ERCC3 (ERCC3)	engagement of C45 of BIRC2 (BIRC2)
C=CC(=O)N(Cc1cccc(Cl)c1Cl)c1ccc(Oc2ccccc2)c(C(F)(F)F)c1 [BPK-21]	higher efficacy	alkylating C342	–
COC(=O)/C=C/C(=O)OC [DMF, reference compound]	–	–	engaged
O=C(CCl)N1CCN(S(=O)(=O)c2ccc(-c3ccncc3)cc2)CC1 [EV-3]	–	–	engaged
C=CC(=O)N(Cc1cccc(Cl)n1)c1ccc(C(=O)Nc2ccccc2)nc1 [BPK-25]	–	alkylating C342	–
